Values joined by “and” are separate entries in the source; they are usually repeats but may differ in a detail not shown here. Equal values may be shown once.
Assay: Phase 1 trial, PK profile of glepaglutide after SC injections in healthy subjects
Type: in vivo, human
Conditions: individual subjects; for Half-life of ZP2469 in the interval from 72 to 168 hours post dose: final data; for Half-life ZP2469: preliminary data
Protocol: A Phase 1 clinical trial to characterize the pharmacokinetic (PK) profiles of glepaglutide (ZP1848) and its primary active metabolites following once-weekly and once daily subcutaneous (SC) injections and after a single intravenous (IV) infusion in healthy subjects was conducted. This included evaluating the pharmacodynamic effects on plasma citrulline levels following SC dosing in healthy subjects. The trial confirmed the feasibility of dosage regimes in which GLP-2 analogues are administered to patients in weekly dosage regimes and compare weekly dosage regimes with daily dosing.
The trial design was a single-center, open-label, partially randomized, 3-part, parallel group trial to characterize the PK profile of glepaglutide administered by SC injection once daily for 7 days (Part 1), SC injection once weekly for 6 weeks (Part 2), and as a single IV infusion (Part 3) in healthy subjects.
Glepaglutide was supplied as an aqueous solution at concentrations of 2 and 10 mg/mL. • Group A: 1 mg glepaglutide once daily, given as single SC injections on Days 1 to 7. • Group B: 5 mg glepaglutide once daily, given as single SC injections on Days 1 to 7. • Group C: 5 mg glepaglutide once weekly, given as single SC injections on Days 1, 8, 15, 22, 29, and 36. • Group D: 10 mg glepaglutide once weekly, given as single SC injections on Days 1, 8, 15, 22, 29, and 36. • Group E: 1 mg glepaglutide, given as an IV infusion at a rate of 4 mg/h for 15 minutes on Day 1.
Blood samples were collected for the analysis of plasma concentrations of glepaglutide and its primary active metabolites, ZP2469 (ZP18481-34) and ZP2711 (ZP18481-35); samples were assayed using validated analytical methods. The following PK parameter estimates were calculated using standard non-compartmental methods: terminal elimination half-life (t1/2), total body clearance of drug after IV administration (CL; IV dose, parent drug only), apparent total clearance (CL/F; SC doses, parent drug only), volume of distribution at steady state (Vss; IV dose, parent drug only), apparent volume of distribution at steady state (Vss/F; SC doses, parent drug only), volume of distribution (Vz; IV dose, parent drug only), apparent volume of distribution (Vz/F; SC doses, parent drug only), maximum observed plasma concentration (Cmax), area under the plasma concentration-time curve (AUC) over a dosing interval (AUCT), AUC from time zero to infinity (AUCinf), AUC from time zero to the time of the last measurable concentration (AUClast), and time of the maximum observed plasma concentration (tmax). Metabolite exposure (based on Cmax, AUCT, and AUCinf) were determined for each group as a ratio of the 2 primary active metabolites, ZP2469 (ZP18481-34) and ZP2711 (ZP18481-35), relative to the glepaglutide parent drug.
The PK parameters estimates for glepaglutide, ZP2469 (ZP18481-34), and ZP2711 (ZP18481-35) were listed and summarized using standard descriptive statistics. The primary PK parameters are t1/2 for glepaglutide, ZP2469 (ZP18481-34), and ZP2711 (ZP18481-35); and CL (IV dose), CL/F (SC doses), Vss (IV dose), Vss/F (SC dose), Vz (IV dose), and Vz/F (SC doses) for glepaglutide. The half-life is calculated as LN(2)/ke where ÷ke is estimate from the slope of the terminal part of the LN(concentration) versus time curve, with repeats regressions of LN(concentration) values using the last three points with non-zero concentrations, then the last four points, last five points, etc. Points with a concentration value of zero are not included. Points prior to Cmax are not used. […] 2) ke must be calculated from at least three data points. 3) The estimated slope must be negative, so that its negative ke is positive. The results of the calculations carried out with preliminary data are shown in Table 4, while the results of the calculations with the complete final data set are shonw in Table 5. […]

Half-life ZP2469 (Group D, 10 mg glepaglutide SC once weekly, after 1 dose): 52 h and 38 h and 43 h and 34 h
Substance: H-HGEGTFSSELATILDALAARDFIAWLIATKITDK-OH [ZP2469]
Half-life of ZP2469 in the interval from 72 to 168 hours post dose (Group A, 1 mg once daily, after 7 doses): 75 h and 87 h and 80 h and 54 h and 57 h | Half-life of ZP2469 in the interval from 72 to 168 hours post dose (Group B, 5 mg once daily, after 7 doses): 168 hr and 77 hr and 101 hr (2×) and 53 hr and 34 hr and 46 hr and 100 hr and 40 hr and 84 hr and 50 hr and 42 hr | Half-life of ZP2469 in the interval from 72 to 168 hours post dose (Group C, 5 mg once weekly, after 1 dose): 329 hr and 41 hr and 38 hr and 48 hr (2×) and 59 hr and 61 hr and 217 hr and 45 hr and 39 hr and 91 hr and 75 hr | Half-life of ZP2469 in the interval from 72 to 168 hours post dose (Group C, 5 mg once weekly, after 6 doses): 26 h and 35 h and 59 h and 75 h and 57 h and 43 h and 52 h and 107 h and 33 h and 68 h and 47 h and 65 h and 452 h | Half-life of ZP2469 in the interval from 72 to 168 hours post dose (Group D, 10 mg once weekly, after 1 dose): 66 hr and 54 hr and 120 hr and 36 hr and 46 hr and 35 hr and 60 hr and 26 hr and 158 hr and 53 hr and 43 hr (2×) and 33 hr and 45 hr and 38 hr | Half-life of ZP2469 in the interval from 72 to 168 hours post dose (Group D, 10 mg once weekly, after 6 doses): 60 hr (2×) and 55 hr and 74 hr and 58 hr and 70 hr and 59 hr and 30 hr and 102 hr and 53 hr and 42 hr and 48 hr and 56 hr and 17 hr | Half-life ZP2469 (Group A, 1 mg glepaglutide SC once daily, after 7 doses): 20 h and 95 h and 76 h and 36 h and 33 h and 87 h | Half-life ZP2469 (Group B, 5 mg glepaglutide SC once daily, after 7 doses): 75 h and 108 h and 209 h and 59 h and 139 h and 94 h | Half-life ZP2469 (Group C, 5 mg glepaglutide SC once weekly, after 1 dose): 38 hr (2×) and 100 hr and 17 hr and 48 hr and 20 hr | Half-life ZP2469 (Group C, 5 mg glepaglutide SC once weekly, after 6 doses): 11 h and 17 h and 16 h and 32 h and 40 h and 22 h | Half-life ZP2469 (Group D, 10 mg glepaglutide SC once weekly, after 6 doses): 60 h and 55 h and 74 h and 34 h and 58 h
